Read-outs that look alike come from different tables or passages of the source.
Tests used:
[1] = log P determination by LC-MS in the acidic range; format: physicochemical
From the text: The LC-MS determination in the acidic range is effected at pH 2.7 using 0.1% aqueous formic acid and acetonitrile (contains 0.1% formic acid) as eluents, linear gradient from 10% acetonitrile to 95% acetonitrile. Alternatively, the determination is effected in the acidic range at pH 2.3 using 0.1% aqueous phosphoric acid and acetonitrile as eluents; linear gradient from 10% acetonitrile to 95% acetonitrile.

Myzus persicae = Myzus persicae - sachet test; format: in vivo; conditions: 100% = all animals killed; for pest or weed control at 6 ppm / pest or weed control at 30 ppm: Myzus persicae, read-out: efficacy (kill in %)
Description: Myzus persicae—Sachet Test Solvent: 2% by vol. of N-methylpyrrolidone • 2% by vol. of diacetone alcohol To produce an appropriate active ingredient formulation, the active ingredient is mixed with the specified amounts of solvent and the concentrate is diluted to the desired concentration with water. The active ingredient formulation is added to a specific nutrient medium in the desired concentration by pipetting. This plate is sealed and combined with a further plate populated with the green peach aphid (Myzus persicae). After the desired time, the kill in % is determined. 100% means that all the animals have been killed; 0% means that no animals have been killed.

[2] = application rate of 6 ppm in nutrient medium
[3] = application rate of 30 ppm in nutrient medium
[4] = Table 2, compounds of the formula (I-2), acidic range pH 2.7 or pH 2.3
[5] = Table 3, HPLC on reversed-phase column (C 18), 55° C., acidic range (pH 2.7 or pH 2.3)
[6] = reversed-phase HPLC column (C18), pH 2.7, values given in the synthesis examples and NMR lists, read-out: HPLC-MS: log P

| Compound | log P (acid) ([1]; LC-MS in the acidic range) | efficacy (kill in %) (Myzus persicae; [2]) [%] | efficacy (kill in %) (Myzus persicae; [3]) [%] | further results |
| --- | --- | --- | --- | --- |
| Cc1ccc(C(=O)Nc2cc(C)n(Cc3ccccc3)n2)cn1 [Compound I-1-80] | 1.71 | 80 | 100 |  |
| Cc1c(Br)c(NC(=O)c2cccnc2)nn1Cc1ncccn1 [Compound I-1-125] | 0.98 |  | 100 |  |
| Cc1cc(NC(=O)c2cncc(Br)c2)nn1Cc1ccc(F)cc1 [Compound I-1-83] | 2.67 |  | 100 |  |
| Cc1cc(NC(=O)c2cccnc2)nn1C(=O)NCc1ncccn1 [Compound I-1-334] | 0.95 | 100 | 100 |  |
| COCn1cnc(NC(=O)c2cccnc2)n1 [Compound I-2-18] |  |  | 80 | log P (acid) [1, 4]: −0.23 |
| Cn1cnc(NC(=O)c2cccnc2)n1 [Compound I-2-14] |  |  | 100 | log P (acid) [1, 4]: <−0.23 |
| Cc1cc(NC(=O)c2cncc(F)c2)nn1CC(F)(F)F [Compound I-1-135] | 1.79 |  | 100 |  |
| O=C(Nc1nn(-c2ncccc2Cl)nc1C(F)(F)F)c1cccnc1 [Compound I-3-6] |  |  | 100 | log P (acid) [1, 5]: 1.89 |
| Cc1cc(NC(=O)c2cccnc2)nn1C(=O)NCc1ccccc1F [Compound I-1-326] | 2.04 | 100 | 100 |  |
| Cn1ncc(NC(=O)c2cccnc2)n1 [Compound I-3-2] |  |  | 100 | log P (acid) [1, 5]: 0.38 |
| Cc1cc(NC(=O)c2cncc(Br)c2)nn1Cc1ccccc1 [Compound I-1-99] | 2.58 |  | 100 |  |
| Cc1noc(Cn2nc(NC(=O)c3cccnc3)cc2C)n1 [Compound I-1-284] | 0.92 | 100 | 100 |  |
| O=C(Nc1ccn(Cc2ncc(C(F)(F)F)cc2Cl)n1)c1cccnc1 [Compound I-1-116] | 1.86 | 100 | 100 |  |
| O=C(Nc1cnn(-c2ncc(C(F)(F)F)cc2Cl)n1)c1cccnc1 [Compound I-3-5] |  |  | 100 | log P (acid) [1, 5]: 2.12 |
| Cc1ccccc1Cn1cnc(NC(=O)c2cccnc2)n1 [Compound I-2-23] |  |  | 100 | log P (acid) [1, 4]: 1.23 |
| Cc1ccc(C(=O)Nc2cc(C)n(Cc3cccc(F)c3)n2)cn1 [Compound I-1-108] | 1.79 |  | 100 |  |
| Cc1cc(NC(=O)c2cccnc2)nn1C(=O)NCc1ccccc1 [Compound I-1-322] | 1.97 | 100 | 100 |  |
| Cc1cn(CC#N)nc1NC(=O)c1cccnc1 [Compound I-1-199] | 0.37 |  | 100 |  |
| O=C(Nc1ccn(Cc2cccc(C(F)(F)F)c2)n1)c1ccc(Cl)nc1 [Compound I-1-87] | 2.82 |  | 100 |  |
| CC(NC(=O)Cn1nnc(NC(=O)c2cccnc2)n1)c1ccccc1 (centres unmarked) [Compound I-4-6, N-(2-{2-Oxo-2-[(1-phenylethyl)amino]ethyl}-2H-tetrazol-5-yl)nicotinamide] |  |  |  | chromatographic logP ([1]; reversed-phase HPLC column (C18), pH 2.7, Table 4, HPLC on reversed-phase column (C 18), 55° C., acidic range (pH 2.7 or pH 2.3), read-out: log P (acid)): 1.34; chromatographic logP [1, 6]: 1.34; pest or weed control at 6 ppm (Myzus persicae; [2]): 100%; pest or weed control at 30 ppm (Myzus persicae; [3]): 100% |
| Cc1cc(NC(=O)c2cccnc2)nn1S(=O)(=O)c1cccnc1 [Compound I-1-280] | 1.45 | 80 | 100 |  |
| CCS(=O)(=O)n1nc(NC(=O)c2cccnc2)cc1C [Compound I-1-278] | 1.29 |  | 100 |  |

| Compound | log P (acid) ([1]; LC-MS in the acidic range) | efficacy (kill in %) (Myzus persicae; [2]) [%] | efficacy (kill in %) (Myzus persicae; [3]) [%] | further results |
| --- | --- | --- | --- | --- |
| Cc1cc(NC(=O)c2cncnc2)nn1Cc1ccccc1 [Compound I-1-66] | 1.76 |  | 100 |  |
| O=C(Nc1ccn(Cc2ccc(F)cc2F)n1)c1cccnc1 [Compound I-1-76] | 1.68 | 100 | 100 |  |
| Cc1ccc2oc(Cn3nc(NC(=O)c4cccnc4)cc3C)nc2c1 [Compound I-1-353] | 1.9 | 100 | 100 |  |
| O=C(Nc1nn(Cc2ncccn2)cc1F)c1cccnc1 [Compound I-1-267] | 0.42 |  | 100 |  |
| Cn1nc(NC(=O)c2cccnc2)cc1OC(F)F [Compound I-1-111] | 0.89 | 100 | 100 |  |
| Cc1cc(NC(=O)c2cccnc2)nn1-c1cccc(C#N)c1 [Compound I-1-217] | 1.59 | 100 | 100 |  |
| Cc1cc(NC(=O)c2cccnc2)nn1Cc1nc(-c2ccccc2)no1 [Compound I-1-300] | 2.01 | 100 | 100 |  |
| COc1ccc(C(=O)Nc2cc(C)n(Cc3ccccc3)n2)cn1 [Compound I-1-104] | 2.43 | 80 | 80 |  |
| Cc1cc(NC(=O)c2cncc(F)c2)nn1C(C)(C)C [Compound I-1-348] | 2.13 |  | 80 |  |
| CCNC(=O)n1nc(NC(=O)c2cccnc2)cc1C [Compound I-1-288] | 1.24 | 100 | 100 |  |
| Cc1cc(NC(=O)c2ccnnc2)nn1-c1ccccn1 [Compound I-1-249] | 1.83 |  | 100 |  |
| O=C(Nc1ccn(Cc2ccccc2)n1)c1cccnc1 [Compound I-1-84] | 1.52 | 100 | 100 |  |
| Cc1cc(NC(=O)c2cccnc2)nn1-c1ccccc1 [Compound I-1-349] | 1.7 |  | 100 |  |
| Cc1cc(NC(=O)c2cccnc2)nn1C(=O)NCc1ccncn1 [Compound I-1-336] | 1.05 | 100 | 100 |  |
| Cc1cc(NC(=O)c2cccnc2)nn1Cc1cn2nc(Cl)ccc2n1 [Compound I-1-351] | 1.42 |  | 100 |  |
| O=C(Nc1cnn(-c2ccc(C(F)(F)F)cn2)n1)c1cccnc1 [Compound I-3-14, N-{2-[5-(Trifluoromethyl)pyridin-2-yl]-2H-1,2,3-triazol-4-yl}nicotinamide] |  |  |  | chromatographic logP ([1]; reversed-phase HPLC column (C18), pH 2.7, Table 3, HPLC on reversed-phase column (C 18), 55° C., acidic range (pH 2.7 or pH 2.3), read-out: log P (acid)): 1.91; chromatographic logP [1, 6]: 1.91; pest or weed control at 6 ppm (Myzus persicae; [2]): 100%; pest or weed control at 30 ppm (Myzus persicae; [3]): 100% |
| Cc1nn(-c2cccc(C(F)(F)F)c2)nc1NC(=O)c1cccnc1 [Compound I-3-18] |  |  |  | log P (acid) [1, 5]: 2.58 |
| COc1ccc(-n2nc(NC(=O)c3cccnc3)cc2C)cc1 [Compound I-1-200] | 1.34 |  |  |  |
| Cc1cc(N)nn1Cc1ncnn1C [II-1-63] |  |  |  | log P (acid) ([1]; amines of the formula (II-1), acidic range pH 2.7 (0.1% formic acid/acetonitrile) or pH 2.3 (0.1% phosphoric acid/acetonitrile)): <−0.23 |
| Cc1cc(NC(=O)OC(C)(C)C)nn1Cc1ncccn1 [tert-Butyl[5-methyl-1-(pyrimidin-2-ylmethyl)-1H-pyrazol-3-yl]carbamate] |  |  |  | chromatographic logP ([1]; pH 2.7, values given in the synthesis examples and NMR lists, read-out: HPLC-MS: log P): 1.75 |
| COc1ccc(C(=O)Nc2cc(C)n(Cc3ccc(F)cc3)n2)cn1 [Compound I-1-110] | 2.47 |  |  |  |
